Measurements taken from article PMC6155239, “Targeting PFKFB3 radiosensitizes cancer cells and suppresses homologous recombination” (Nature Communications, 2018).

How the values were obtained:
[1] = biological target: T1, ABL1(E255K)-phosphorylated (Homo sapiens, UniProt P00519, E255K); assay: KINOMEscan; assay type: binding; conditions: 2000 nM; read-out: Percent Control
T1 construct: purchased DiscoverX (Eurofins) KINOMEscan / scanEDGE, inferred from the naming style

[2] = biological target: T2, ABL1-nonphosphorylated (Homo sapiens, UniProt P00519); assay: KINOMEscan; assay type: binding; conditions: 2000 nM; read-out: Percent Control
T2 construct: purchased DiscoverX (Eurofins) KINOMEscan / scanEDGE, inferred from the naming style

[3] = biological target: T3, ACVR1B (Homo sapiens, UniProt P36896); assay: KINOMEscan; assay type: binding; conditions: 2000 nM; read-out: Percent Control
T3 construct: purchased DiscoverX (Eurofins) KINOMEscan / scanEDGE, inferred from the naming style

[4] = biological target: T4, AKT1 (Homo sapiens, UniProt P31749); assay: KINOMEscan; assay type: binding; conditions: 2000 nM; read-out: Percent Control
T4 construct: purchased DiscoverX (Eurofins) KINOMEscan / scanEDGE, inferred from the naming style

[5] = biological target: T5, AURKA (Homo sapiens, UniProt O14965); assay: KINOMEscan; assay type: binding; conditions: 2000 nM; read-out: Percent Control
T5 construct: purchased DiscoverX (Eurofins) KINOMEscan / scanEDGE, inferred from the naming style

[6] = biological target: T6, AXL (Homo sapiens, UniProt P30530); assay: KINOMEscan; assay type: binding; conditions: 2000 nM; read-out: Percent Control
T6 construct: purchased DiscoverX (Eurofins) KINOMEscan / scanEDGE, inferred from the naming style

[7] = biological target: T7, BMPR2 (Homo sapiens, UniProt Q13873); assay: KINOMEscan; assay type: binding; conditions: 2000 nM; read-out: Percent Control
T7 construct: purchased DiscoverX (Eurofins) KINOMEscan / scanEDGE, inferred from the naming style

[8] = biological target: T8, BRAF (Homo sapiens, UniProt P15056); assay: KINOMEscan; assay type: binding; conditions: 2000 nM; read-out: Percent Control
T8 construct: purchased DiscoverX (Eurofins) KINOMEscan / scanEDGE, inferred from the naming style

[9] = biological target: T9, BRAF(V600E) (Homo sapiens, UniProt P15056, V600E); assay: KINOMEscan; assay type: binding; conditions: 2000 nM; read-out: Percent Control
T9 construct: purchased DiscoverX (Eurofins) KINOMEscan / scanEDGE, inferred from the naming style

[10] = biological target: T10, CDK3 (Homo sapiens, UniProt Q00526); assay: KINOMEscan; assay type: binding; conditions: 2000 nM; read-out: Percent Control
T10 construct: purchased DiscoverX (Eurofins) KINOMEscan / scanEDGE, inferred from the naming style

[11] = biological target: T11, CHEK1 (Homo sapiens, UniProt O14757); assay: KINOMEscan; assay type: binding; conditions: 2000 nM; read-out: Percent Control
T11 construct: purchased DiscoverX (Eurofins) KINOMEscan / scanEDGE, inferred from the naming style

[12] = biological target: T12, EGFR (Homo sapiens, UniProt P00533); assay: KINOMEscan; assay type: binding; conditions: 2000 nM; read-out: Percent Control
T12 construct: purchased DiscoverX (Eurofins) KINOMEscan / scanEDGE, inferred from the naming style

[13] = biological target: T13, EPHA2 (Homo sapiens, UniProt P29317); assay: KINOMEscan; assay type: binding; conditions: 2000 nM; read-out: Percent Control
T13 construct: purchased DiscoverX (Eurofins) KINOMEscan / scanEDGE, inferred from the naming style

[14] = biological target: T14, FGFR2 (Homo sapiens, UniProt P21802); assay: KINOMEscan; assay type: binding; conditions: 2000 nM; read-out: Percent Control
T14 construct: purchased DiscoverX (Eurofins) KINOMEscan / scanEDGE, inferred from the naming style

[15] = biological target: T15, FGFR3 (Homo sapiens, UniProt P22607); assay: KINOMEscan; assay type: binding; conditions: 2000 nM; read-out: Percent Control
T15 construct: purchased DiscoverX (Eurofins) KINOMEscan / scanEDGE, inferred from the naming style

[16] = biological target: T16, IGF1R (Homo sapiens, UniProt P08069); assay: KINOMEscan; assay type: binding; conditions: 2000 nM; read-out: Percent Control
T16 construct: purchased DiscoverX (Eurofins) KINOMEscan / scanEDGE, inferred from the naming style

[17] = test system: U2OS cells; assay: IR-induced RAD51 / RPA32 foci, confocal; assay type: cell-based; conditions: in combination with IR
Procedure: (§1) Cells were grown on sterilized coverslips and fixed with 4% paraformaldehyde (PFA) (Santa Cruz) and 2% sucrose (Sigma Aldrich) for 15 min at room temperature. They were then permeabilized with 0.2% NP-40 (Thermo Scientific) for 10 min at room temperature followed by 30 min of blocking in blocking buffer (2 or 3% BSA, 5% glycerol, 0.1% Tween 20 (Sigma Aldrich)). Coverslips were subsequently incubated for 1, 2, or 24 h in primary antibody and 40 min in secondary antibody diluted in blocking buffer, DNA was stained with DAPI for 10 min. The coverslips were mounted with Prolonged Gold mounting medium (Invitrogen). Images were acquired with a Zeiss LSM 780 microscope using a 40× or 63× oil immersion lens and processed in ImageJ and CellProfiler.
(§2) To visualize PFKFB3, RPA32, RAD51, BRCA1, 53BP1, and RRM2 IRIF, the cells were first washed with PBS and then incubated for 5 min at room temperature with cytoskeleton (CSK) buffer containing 10 mM PIPES pH 7.0 (Sigma Aldrich), 100 mM NaCl (EMD Millipore), 300 mM sucrose (Sigma Aldrich), 3 mM MgCl2 (Sigma Aldrich), and 0.7% Triton X-100 (Sigma Aldrich). After these treatments, the cells were washed once again with PBS and then fixed in 4% PFA with 2% sucrose.

[18] = test system: U2OS cells; assay: Clonogenic survival, U2OS; assay type: cell-based; conditions: U2OS pre-treated prior to IR, colonies 10 days post treatments
Procedure: (§3) U2OS cells were transfected with indicated siRNAs and 24 h later exposed to IR (2 Gy) or left untreated and allowed to recover for 4 h. One-hundred U2OS cells were then seeded into 6-well plates and after 10 days colonies were fixed and stained with 4% methylene blue (Sigma Aldrich) in methanol. BJ TERT (500 cells), BJ RAS (200 cells), or U2OS (200 cells) were seeded into 6-well plates 24 h prior to treatment with inhibitors as indicated or vehicle for 24 h and then subjected to IR (2 Gy). The inhibitors were washed out 72 h later and colonies were fixed 4 days (BJ RAS) or 7 days (BJ TERT) later with 4% methylene blue in methanol.

[19] = test system: BJ RAS cells; assay: Clonogenic survival, BJ RAS; assay type: cell-based; conditions: with and without IR (2 Gy)
Procedure: as §3

[20] = test system: U2OS cells; assay: IR-induced Mre11 / Nbs1 foci formation; assay type: cell-based; conditions: treatment prior to IR (6 Gy, 2 h recovery)
Procedure: as §1

[21] = test system: U2OS cells; assay: Cell cycle analysis (propidium iodide, flow cytometry); assay type: cell-based; conditions: 24 h post-IR
Procedure: For cell cycle analysis, cells were treated or transfected with siRNA as described and harvested at the indicated time points with trypsin. For studies using IR, cells were exposed to IR with 2 Gy, and harvested at the indicated time points with trypsin. The cells were washed in PBS and fixed with 70% ethanol in PBS at 4 °C for 1 h and then stored at −20 °C until staining. Ethanol was removed by centrifugation and cells were then washed in PBS before staining DNA with propidium iodide (PI) solution containing 40 μg/mL PI, 100 μg/mL RNase A, and 0.1% Triton X-100 (Sigma Aldrich). Cells were analyzed by flow cytometry on a FACS Navios (Beckman Coulter) using Kaluza software.

[22] = test system: U2OS cells; assay: IR-induced PFKFB3/RRM2 foci co-localization; assay type: cell-based; conditions: pre-treatment prior to IR 6 Gy
Procedure: as §1, §2

T15 sequence (P22607 23-806): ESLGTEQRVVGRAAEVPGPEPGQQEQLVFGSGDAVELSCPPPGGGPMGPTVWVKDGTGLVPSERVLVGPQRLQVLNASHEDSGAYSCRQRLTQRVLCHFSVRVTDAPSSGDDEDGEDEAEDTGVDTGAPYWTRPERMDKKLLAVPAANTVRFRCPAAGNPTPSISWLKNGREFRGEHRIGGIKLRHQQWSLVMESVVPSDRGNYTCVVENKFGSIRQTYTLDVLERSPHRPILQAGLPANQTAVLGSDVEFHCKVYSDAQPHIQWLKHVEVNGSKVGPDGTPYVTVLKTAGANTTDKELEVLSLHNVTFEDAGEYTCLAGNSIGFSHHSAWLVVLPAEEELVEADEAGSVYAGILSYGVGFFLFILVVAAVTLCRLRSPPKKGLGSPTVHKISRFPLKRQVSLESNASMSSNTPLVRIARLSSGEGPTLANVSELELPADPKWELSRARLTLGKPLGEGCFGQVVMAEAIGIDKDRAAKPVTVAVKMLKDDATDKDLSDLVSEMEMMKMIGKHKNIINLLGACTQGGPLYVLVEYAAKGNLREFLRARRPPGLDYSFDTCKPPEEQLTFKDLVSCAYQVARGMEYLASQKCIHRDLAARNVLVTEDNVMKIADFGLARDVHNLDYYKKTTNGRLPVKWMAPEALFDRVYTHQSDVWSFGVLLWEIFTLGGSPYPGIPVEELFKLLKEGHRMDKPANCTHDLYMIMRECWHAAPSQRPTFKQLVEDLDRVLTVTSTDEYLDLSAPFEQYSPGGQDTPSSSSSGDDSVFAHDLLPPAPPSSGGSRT
T2 sequence (P00519 whole entry): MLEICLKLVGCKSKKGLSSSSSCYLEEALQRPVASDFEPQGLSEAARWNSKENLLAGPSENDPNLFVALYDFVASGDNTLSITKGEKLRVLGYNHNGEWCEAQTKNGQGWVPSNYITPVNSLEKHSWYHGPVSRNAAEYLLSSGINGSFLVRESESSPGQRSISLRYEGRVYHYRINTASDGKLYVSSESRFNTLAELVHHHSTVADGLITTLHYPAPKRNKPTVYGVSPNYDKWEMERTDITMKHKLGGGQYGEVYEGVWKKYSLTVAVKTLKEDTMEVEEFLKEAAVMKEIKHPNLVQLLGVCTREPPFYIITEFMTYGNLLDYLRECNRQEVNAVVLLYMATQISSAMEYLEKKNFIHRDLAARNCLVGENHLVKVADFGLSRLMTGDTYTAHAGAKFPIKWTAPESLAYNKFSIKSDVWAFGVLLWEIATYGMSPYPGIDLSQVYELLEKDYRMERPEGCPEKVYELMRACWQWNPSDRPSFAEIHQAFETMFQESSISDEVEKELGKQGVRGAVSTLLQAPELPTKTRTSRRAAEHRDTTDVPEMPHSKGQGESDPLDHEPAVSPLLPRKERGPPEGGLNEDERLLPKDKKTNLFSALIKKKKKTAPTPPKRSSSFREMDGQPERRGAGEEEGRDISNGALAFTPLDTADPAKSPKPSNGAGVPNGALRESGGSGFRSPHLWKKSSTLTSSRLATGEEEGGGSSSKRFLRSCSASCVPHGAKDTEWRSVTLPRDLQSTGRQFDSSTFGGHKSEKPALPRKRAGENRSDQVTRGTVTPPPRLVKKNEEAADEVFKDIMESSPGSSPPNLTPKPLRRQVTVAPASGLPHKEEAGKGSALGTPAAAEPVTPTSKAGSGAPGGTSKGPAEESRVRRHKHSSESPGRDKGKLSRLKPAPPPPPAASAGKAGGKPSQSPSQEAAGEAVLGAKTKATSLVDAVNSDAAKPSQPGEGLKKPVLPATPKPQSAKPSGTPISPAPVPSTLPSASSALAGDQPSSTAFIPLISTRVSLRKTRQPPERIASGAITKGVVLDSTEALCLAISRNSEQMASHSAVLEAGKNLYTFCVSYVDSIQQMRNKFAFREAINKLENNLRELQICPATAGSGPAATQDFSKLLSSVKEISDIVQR
T1 sequence (P00519 whole entry E255K): as the sequence (P00519 whole entry) above, with E255K counted along it
T4 sequence (P31749 whole entry): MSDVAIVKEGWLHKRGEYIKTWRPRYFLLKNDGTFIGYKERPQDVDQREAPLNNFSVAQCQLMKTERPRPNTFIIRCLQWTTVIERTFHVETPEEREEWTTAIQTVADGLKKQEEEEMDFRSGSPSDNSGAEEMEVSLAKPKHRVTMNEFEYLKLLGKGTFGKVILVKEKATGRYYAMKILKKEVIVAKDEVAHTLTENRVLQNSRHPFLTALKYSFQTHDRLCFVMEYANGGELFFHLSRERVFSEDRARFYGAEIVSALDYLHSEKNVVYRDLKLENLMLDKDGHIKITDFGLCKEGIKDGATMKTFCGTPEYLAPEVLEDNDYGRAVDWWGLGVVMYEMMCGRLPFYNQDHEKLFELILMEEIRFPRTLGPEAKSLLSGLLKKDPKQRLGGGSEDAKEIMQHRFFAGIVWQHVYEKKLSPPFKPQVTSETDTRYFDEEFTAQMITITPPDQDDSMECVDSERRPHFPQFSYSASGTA
T7 sequence (Q13873 27-1038): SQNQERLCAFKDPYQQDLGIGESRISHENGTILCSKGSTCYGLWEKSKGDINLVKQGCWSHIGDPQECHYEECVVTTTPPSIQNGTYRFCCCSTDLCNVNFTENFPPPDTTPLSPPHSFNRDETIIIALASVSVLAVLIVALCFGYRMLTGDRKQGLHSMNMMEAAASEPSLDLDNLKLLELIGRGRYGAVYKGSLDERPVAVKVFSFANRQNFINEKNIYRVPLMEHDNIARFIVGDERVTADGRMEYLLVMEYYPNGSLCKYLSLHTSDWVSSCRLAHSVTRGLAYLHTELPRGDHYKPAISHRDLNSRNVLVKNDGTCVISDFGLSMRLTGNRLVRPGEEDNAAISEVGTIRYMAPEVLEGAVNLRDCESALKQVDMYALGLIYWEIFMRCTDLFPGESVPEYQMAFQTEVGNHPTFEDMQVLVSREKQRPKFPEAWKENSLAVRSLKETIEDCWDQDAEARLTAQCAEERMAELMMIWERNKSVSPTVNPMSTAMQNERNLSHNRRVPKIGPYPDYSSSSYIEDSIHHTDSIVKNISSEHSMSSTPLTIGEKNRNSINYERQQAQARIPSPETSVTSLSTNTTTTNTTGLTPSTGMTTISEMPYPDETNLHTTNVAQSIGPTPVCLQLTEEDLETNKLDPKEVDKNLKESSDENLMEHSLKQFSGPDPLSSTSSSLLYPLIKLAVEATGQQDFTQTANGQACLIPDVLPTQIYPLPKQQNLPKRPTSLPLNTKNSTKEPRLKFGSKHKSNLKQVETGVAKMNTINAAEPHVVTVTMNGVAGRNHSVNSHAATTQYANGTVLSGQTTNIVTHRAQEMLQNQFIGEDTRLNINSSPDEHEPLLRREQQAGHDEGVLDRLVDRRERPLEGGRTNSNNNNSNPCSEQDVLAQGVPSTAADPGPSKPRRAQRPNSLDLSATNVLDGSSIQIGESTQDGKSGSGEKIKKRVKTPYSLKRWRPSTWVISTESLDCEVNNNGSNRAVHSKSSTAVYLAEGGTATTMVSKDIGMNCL
T10 sequence (Q00526 whole entry): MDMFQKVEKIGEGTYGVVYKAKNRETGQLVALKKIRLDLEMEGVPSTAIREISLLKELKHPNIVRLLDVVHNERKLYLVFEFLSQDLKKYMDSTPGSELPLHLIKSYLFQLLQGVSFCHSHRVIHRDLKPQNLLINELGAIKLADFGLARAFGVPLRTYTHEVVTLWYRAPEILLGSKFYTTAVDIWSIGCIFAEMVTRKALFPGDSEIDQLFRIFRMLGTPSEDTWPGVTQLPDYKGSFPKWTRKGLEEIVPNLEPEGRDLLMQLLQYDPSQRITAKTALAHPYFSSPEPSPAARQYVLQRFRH
T5 sequence (O14965 whole entry): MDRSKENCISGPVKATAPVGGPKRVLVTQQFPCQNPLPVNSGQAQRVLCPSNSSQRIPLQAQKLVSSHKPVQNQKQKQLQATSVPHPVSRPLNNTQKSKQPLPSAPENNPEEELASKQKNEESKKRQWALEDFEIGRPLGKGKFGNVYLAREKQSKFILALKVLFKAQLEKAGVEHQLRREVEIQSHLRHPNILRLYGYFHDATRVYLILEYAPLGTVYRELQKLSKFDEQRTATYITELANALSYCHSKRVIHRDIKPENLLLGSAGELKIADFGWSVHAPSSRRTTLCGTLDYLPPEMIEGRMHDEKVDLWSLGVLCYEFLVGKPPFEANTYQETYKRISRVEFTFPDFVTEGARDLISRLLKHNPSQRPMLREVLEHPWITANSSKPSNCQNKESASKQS
T8 sequence (P15056 whole entry): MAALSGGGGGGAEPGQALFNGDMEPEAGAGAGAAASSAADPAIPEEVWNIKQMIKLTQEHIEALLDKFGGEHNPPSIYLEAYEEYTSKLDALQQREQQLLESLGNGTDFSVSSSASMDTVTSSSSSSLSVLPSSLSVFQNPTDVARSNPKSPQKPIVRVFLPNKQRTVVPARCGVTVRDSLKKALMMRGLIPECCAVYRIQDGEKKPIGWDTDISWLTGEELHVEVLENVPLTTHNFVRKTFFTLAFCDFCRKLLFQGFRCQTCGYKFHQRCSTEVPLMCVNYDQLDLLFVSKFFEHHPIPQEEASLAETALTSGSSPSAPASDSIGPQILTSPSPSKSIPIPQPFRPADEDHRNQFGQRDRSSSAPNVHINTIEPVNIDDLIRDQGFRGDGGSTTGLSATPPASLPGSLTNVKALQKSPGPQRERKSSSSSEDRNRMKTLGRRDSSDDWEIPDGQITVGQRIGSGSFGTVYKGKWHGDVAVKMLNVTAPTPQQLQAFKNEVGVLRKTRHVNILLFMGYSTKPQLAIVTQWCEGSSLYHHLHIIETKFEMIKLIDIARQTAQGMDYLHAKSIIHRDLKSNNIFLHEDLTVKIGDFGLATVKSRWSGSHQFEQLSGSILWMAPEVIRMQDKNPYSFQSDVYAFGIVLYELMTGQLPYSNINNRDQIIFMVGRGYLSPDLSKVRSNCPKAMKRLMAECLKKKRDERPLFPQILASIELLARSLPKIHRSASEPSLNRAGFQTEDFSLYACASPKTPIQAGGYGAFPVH
T9 sequence (P15056 whole entry V600E): as the sequence (P15056 whole entry) above, with V600E counted along it

For `O=C(O)c1ccc(NS(=O)(=O)c2cccc(-c3cc(F)ccc3O)c2)cc1O` [KAN0438241, 4-{[(5′-Fluoro-2′-hydroxybiphenyl-3-yl)sulfonyl]amino}-2-hydroxybenzoic acid], the remaining binding at 2 µM [1] was 100%, the remaining binding at 2 µM [2] was 100% and the remaining binding at 2 µM [3] was 100%. The remaining binding at 2 µM [4] was 100%, the remaining binding at 2 µM [5] was 97% and the remaining binding at 2 µM [6] was 100%. It also gave a remaining binding at 2 µM [7] of 88%, a remaining binding at 2 µM [8] of 100% and a remaining binding at 2 µM [9] of 97%. The remaining binding at 2 µM [10] was 97%, the remaining binding at 2 µM [11] was 89% and the remaining binding at 2 µM [12] was 93%. It also gave a remaining binding at 2 µM [13] of 100%, a remaining binding at 2 µM [14] of 88% and a remaining binding at 2 µM [15] of 95%. It also gave a remaining binding at 2 µM [16] of 100%.
In the case of `O=C(OCCO)c1ccc(NS(=O)(=O)c2cccc(-c3cc(F)ccc3O)c2)cc1O` [KAN0438757, 2-Hydroxyethyl-4-{[(5′-fluoro-2′-hydroxybiphenyl-3-yl)sulfonyl]amino}-2-hydroxybenzoate], the “IR-induced recruitment of RPA32 and RAD51 into repair foci (in words)” value [17] is reported as “disrupted”, the “clonogenic survival in combination with IR (in words)” value [18] is reported as “dose-dependent radiosensitization” and the “clonogenic survival of BJ RAS (in words)” value [19] is reported as “decreased clonogenic survival”. The “IR-induced Mre11 or Nbs1 foci formation (in words)” value [20] was “did not affect”, the “accumulation of cells in G2/M phase upon IR (in words)” value [21] was “increased accumulation of cells in the G2/M phase” and the “IR-induced co-localization of PFKFB3 and RRM2 (in words)” value [22] was “disrupted”.
